Measurements taken from ChEMBL document CHEMBL1201862, “PubChem BioAssay data set” (2004).
Activity calls are given as the source filed them.

Tests used:
A-375 [1] = test: MITF: Counter assay: A375 proliferation Measured in Cell-Based System Using Plate Reader - 2084-03_Inhibitor_Dose_DryPowder_Activity. [Related pubchem assays (depositor defined):AID488944]; assay type: functional; conditions: Homo sapiens
[2] = target: T1, Microphthalmia-associated transcription factor (Homo sapiens, UniProt O75030); test: reducers of TRPM1 reporter luminescence, concentration series – cell-based, SK-MEL-5, cherry-picked, set 3, MITF inhibitor project, dose response (AID 493073); assay type: functional;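 note: SK-MEL-5 melanoma cells with luciferase driven by the MITF target TRPM1 promoter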
T1 sequence (O75030 whole entry): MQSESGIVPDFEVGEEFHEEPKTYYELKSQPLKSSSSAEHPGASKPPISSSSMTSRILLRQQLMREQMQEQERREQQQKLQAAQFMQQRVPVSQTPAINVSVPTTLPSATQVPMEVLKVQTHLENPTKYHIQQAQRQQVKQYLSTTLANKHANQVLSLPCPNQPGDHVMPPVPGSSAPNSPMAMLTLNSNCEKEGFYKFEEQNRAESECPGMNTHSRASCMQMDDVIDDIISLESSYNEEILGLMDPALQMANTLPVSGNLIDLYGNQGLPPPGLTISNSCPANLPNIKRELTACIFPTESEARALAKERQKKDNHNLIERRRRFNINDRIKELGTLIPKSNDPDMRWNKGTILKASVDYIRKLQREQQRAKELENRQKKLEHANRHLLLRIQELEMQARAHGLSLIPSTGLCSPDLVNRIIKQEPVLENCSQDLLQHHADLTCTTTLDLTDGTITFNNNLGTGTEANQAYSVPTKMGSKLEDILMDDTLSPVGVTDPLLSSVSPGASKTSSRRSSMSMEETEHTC

[3] = target: FAD-linked sulfhydryl oxidase ALR (Homo sapiens, UniProt P55789); test: ALR-catalysed DTT oxidation blockers – biochemical, H2O2 detection, luminescence, cherry-pick, dose response (AID 493248)
Large T antigen = Large T antigen (Simian virus 40, UniProt P03070); assay type: functional, Betapolyomavirus macacae;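 note: Confirmatory-stage PubChem screen for compounds that inhibit SV40 T antigen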
A-375 [4] = test: proliferation inhibition in MITF-low A375 cells – cell-based, cherry-pick samples, set 2, counter-screen for MITF modulator project, dose response (AID 540335); assay type: functional; conditions: Homo sapiens
[5] = target: Beta-adrenergic receptor kinase 1 (Homo sapiens, UniProt P25098); test: blockers of aptamer binding to GRK2 – biochemical, flow cytometry beads, FAM-aptamer, powder set 1, dose response (AID 588720)
[6] = target: T2, Tyrosine-protein phosphatase non-receptor type 7 (Homo sapiens, UniProt P35236); assay type: functional
T2 sequence (P35236 whole entry): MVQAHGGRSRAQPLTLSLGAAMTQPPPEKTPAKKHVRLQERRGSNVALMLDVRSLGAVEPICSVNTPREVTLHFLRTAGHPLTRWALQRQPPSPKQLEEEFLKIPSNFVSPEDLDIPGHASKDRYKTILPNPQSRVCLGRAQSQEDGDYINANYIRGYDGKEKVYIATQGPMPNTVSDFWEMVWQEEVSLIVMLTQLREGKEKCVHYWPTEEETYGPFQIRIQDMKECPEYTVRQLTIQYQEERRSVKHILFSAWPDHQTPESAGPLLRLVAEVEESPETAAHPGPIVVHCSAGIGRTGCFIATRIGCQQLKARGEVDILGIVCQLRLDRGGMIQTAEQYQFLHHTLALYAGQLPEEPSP

[7] = target: Glyceraldehyde-3-phosphate dehydrogenase (Homo sapiens, UniProt P04406)
[8] = target: T3, Dual specificity protein phosphatase 6 (Rattus norvegicus, UniProt Q64346); assay type: functional
[9] = target: T3, Dual specificity protein phosphatase 6
Mu-type opioid receptor = Mu-type opioid receptor (Homo sapiens, UniProt P35372); test: (§1) Counterscreen for agonists of heterodimerization of the mu 1 (OPRM1) and delta 1 (OPRD1) opioid receptors: Luminescence-based cell-based high throughput dose response assay to identify agonists of OPRM1 homodimerization.; assay type: functional
[10] = target: Delta-type opioid receptor (Homo sapiens, UniProt P41143); test: as §1, with “of OPRD1” for “of OPRM1”, “homodimerization. [Related pubchem assays (depositor defined):AID504326, AID504355, AID504692, AID504904, AID504905]” for “homodimerization.”; assay type: functional
[11] = target: T4, Short transient receptor potential channel 4 (Mus musculus, UniProt Q9QUQ5); test: calcium entry via TRPC4 opening agents – cell-based, HEK293 TRPC4/mu-opioid, Fluo-4 calcium, dose response (AID 434937); assay type: functional
T4 sequence (Q9QUQ5 whole entry): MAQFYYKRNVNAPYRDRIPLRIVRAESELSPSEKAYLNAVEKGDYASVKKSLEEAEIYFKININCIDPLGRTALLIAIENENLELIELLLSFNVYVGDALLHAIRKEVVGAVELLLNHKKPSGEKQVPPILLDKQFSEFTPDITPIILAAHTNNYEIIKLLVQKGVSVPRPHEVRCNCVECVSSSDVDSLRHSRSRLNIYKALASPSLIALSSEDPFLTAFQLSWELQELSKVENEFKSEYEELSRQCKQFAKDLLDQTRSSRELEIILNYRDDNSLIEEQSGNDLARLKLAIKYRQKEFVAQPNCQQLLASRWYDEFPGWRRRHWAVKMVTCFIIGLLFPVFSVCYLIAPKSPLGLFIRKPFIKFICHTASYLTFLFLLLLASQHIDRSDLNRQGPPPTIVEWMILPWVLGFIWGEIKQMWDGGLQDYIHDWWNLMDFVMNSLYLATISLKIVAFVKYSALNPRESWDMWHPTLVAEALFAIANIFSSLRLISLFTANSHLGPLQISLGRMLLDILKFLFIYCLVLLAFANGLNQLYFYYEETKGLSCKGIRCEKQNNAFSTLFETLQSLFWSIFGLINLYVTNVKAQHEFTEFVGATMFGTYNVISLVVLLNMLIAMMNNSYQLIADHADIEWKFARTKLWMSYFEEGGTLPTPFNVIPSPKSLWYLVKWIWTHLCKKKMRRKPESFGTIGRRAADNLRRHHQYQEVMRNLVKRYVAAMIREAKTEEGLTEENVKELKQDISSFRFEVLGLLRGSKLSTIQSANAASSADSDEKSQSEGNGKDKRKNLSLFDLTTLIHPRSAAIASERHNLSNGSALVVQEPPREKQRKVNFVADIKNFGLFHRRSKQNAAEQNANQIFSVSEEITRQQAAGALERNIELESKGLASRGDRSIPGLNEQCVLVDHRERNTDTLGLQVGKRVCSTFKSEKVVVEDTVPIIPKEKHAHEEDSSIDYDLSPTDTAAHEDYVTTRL

[12] = target: 5-hydroxytryptamine receptor 5A (Homo sapiens, UniProt P47898); test: Counterscreen for agonists of OPRM1-OPRD1 heterodimerization: luminescence-based cell-based high throughput dose response assay to identify agonists of 5-hydroxytryptamine (serotonin) 5A receptor (HTR5A). [Related pubchem assays (depositor defined):AID504326, AID504355, AID504692, AID504904, AID504905]; assay type: functional
[13] = loss of viability in HepG2 cells – cell-based, CellTiter-Glo, cherry-picked, cytotoxicity control for Shn3 inhibitor project, dose response (AID 624134); assay type: functional
[14] = non-specific 3'UTR reporter inhibition in Clone20-Shn3RL – cell-based, Renilla luciferase, cherry-picked, counter-screen for Shn3 inhibitor project, dose response (AID 624133); assay type: functional
[15] = reduction of Shn3 3'UTR-driven luciferase in osteoblasts – cell-based, Clone20 osteoblasts, firefly luciferase, cherry-picked, dose response (AID 624132); assay type: functional;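 note: firefly luciferase luminescence from reporter carrying the Shn3 3'UTR in osteoblasts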
Escherichia coli [16] = test: microbe, parasite or virus in culture
Paired box protein Pax-8 = Paired box protein Pax-8 (Homo sapiens, UniProt Q06710); test: PAX8 transcriptional activity inhibition in RMG-I – RMG-I cells, luciferase, cherry-pick, dose response (AID 687027); assay type: functional, cell-based;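 note: luciferase reporter driven by Pax8 target thyroperoxidase promoter measured by SteadyGlo luminescence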
Vero [17] = test: cells; assay type: functional, cell-based; conditions: Chlorocebus sabaeus
Escherichia coli [18] = test: microbe, parasite or virus in culture; remark: listed apart in the source
Vero [19] = test: cells; assay type: functional; conditions: Chlorocebus sabaeus
Hexokinase HKDC1 [20] = target: T5, Hexokinase HKDC1 (Homo sapiens, UniProt Q2TB90); test: analog inhibition of human HKDC1 activity – biochemical, set 2, SAR follow-up (AID 588355); assay type: functional
T5 sequence (Q2TB90 whole entry): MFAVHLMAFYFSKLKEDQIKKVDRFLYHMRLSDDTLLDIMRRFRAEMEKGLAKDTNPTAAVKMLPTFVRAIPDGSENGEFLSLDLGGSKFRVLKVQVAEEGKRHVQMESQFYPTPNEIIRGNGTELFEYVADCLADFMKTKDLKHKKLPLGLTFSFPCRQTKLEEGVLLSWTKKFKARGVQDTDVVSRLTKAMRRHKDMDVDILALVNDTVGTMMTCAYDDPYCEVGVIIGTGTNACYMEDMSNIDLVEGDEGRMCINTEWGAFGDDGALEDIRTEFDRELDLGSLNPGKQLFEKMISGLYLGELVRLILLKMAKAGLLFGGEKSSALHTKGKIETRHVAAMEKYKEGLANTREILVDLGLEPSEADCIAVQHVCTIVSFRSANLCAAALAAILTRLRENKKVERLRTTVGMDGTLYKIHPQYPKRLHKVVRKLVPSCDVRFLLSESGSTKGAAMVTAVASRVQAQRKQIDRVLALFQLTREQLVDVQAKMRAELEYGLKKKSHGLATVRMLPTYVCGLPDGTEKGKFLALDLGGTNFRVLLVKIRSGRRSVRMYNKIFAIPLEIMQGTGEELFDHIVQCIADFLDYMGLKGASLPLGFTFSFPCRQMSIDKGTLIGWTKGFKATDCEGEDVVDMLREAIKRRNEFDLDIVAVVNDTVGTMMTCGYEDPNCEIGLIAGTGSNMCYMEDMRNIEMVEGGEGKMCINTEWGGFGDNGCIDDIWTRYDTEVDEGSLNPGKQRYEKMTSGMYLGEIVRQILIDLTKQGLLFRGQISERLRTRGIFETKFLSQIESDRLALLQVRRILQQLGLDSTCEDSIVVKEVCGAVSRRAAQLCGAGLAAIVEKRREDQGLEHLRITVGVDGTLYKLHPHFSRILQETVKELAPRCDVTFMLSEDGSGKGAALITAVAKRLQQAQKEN

Hexokinase-1 [21] = target: T6, Hexokinase-1 (Homo sapiens, UniProt P19367); test: hexokinase 1 activity inhibitors, potency – biochemical, set 2, resazurin fluorescence coupled readout, selectivity assay for HKDC1 inhibitor project, SAR follow-up (AID 588356); assay type: functional
Hexokinase-1 [22] = target: T6, Hexokinase-1; test: SAR analysis of small molecule inhibitors of hexokinase domain containing I (HKDC1) in the hexokinase 1 selectivity assay. [Related pubchem assays (depositor defined):AID493160, AID493190]; assay type: functional
Hexokinase HKDC1 [23] = target: T5, Hexokinase HKDC1; test: SAR analysis of small molecule inhibitors of hexokinase domain containing I (HKDC1). [Related pubchem assays (depositor defined):AID493160, AID493190]; assay type: functional

T6 sequence (P19367 whole entry, the tested form may be a part): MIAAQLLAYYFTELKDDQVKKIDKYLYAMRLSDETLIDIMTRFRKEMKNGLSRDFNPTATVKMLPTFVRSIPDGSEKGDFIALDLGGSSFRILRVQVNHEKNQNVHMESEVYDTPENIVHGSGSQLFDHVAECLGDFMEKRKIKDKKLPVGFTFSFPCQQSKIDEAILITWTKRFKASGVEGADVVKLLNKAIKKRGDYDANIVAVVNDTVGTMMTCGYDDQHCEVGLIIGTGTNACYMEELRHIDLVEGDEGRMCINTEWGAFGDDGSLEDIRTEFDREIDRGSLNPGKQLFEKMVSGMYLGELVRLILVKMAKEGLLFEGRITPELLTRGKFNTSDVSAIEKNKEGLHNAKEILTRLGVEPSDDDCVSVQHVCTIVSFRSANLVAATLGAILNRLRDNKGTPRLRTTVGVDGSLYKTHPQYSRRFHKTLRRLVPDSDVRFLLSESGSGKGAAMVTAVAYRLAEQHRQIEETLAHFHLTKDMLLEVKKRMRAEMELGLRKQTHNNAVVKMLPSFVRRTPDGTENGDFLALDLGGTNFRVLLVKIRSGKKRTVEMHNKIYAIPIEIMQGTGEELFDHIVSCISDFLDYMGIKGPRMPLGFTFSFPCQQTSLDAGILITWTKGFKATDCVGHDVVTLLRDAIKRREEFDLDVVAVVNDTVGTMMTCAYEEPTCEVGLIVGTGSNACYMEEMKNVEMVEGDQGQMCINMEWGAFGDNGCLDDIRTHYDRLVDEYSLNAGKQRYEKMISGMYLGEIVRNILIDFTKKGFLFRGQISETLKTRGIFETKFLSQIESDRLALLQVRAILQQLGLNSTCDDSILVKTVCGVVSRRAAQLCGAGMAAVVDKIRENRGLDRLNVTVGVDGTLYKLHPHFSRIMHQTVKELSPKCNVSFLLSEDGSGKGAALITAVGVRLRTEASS
T3 sequence (Q64346 whole entry): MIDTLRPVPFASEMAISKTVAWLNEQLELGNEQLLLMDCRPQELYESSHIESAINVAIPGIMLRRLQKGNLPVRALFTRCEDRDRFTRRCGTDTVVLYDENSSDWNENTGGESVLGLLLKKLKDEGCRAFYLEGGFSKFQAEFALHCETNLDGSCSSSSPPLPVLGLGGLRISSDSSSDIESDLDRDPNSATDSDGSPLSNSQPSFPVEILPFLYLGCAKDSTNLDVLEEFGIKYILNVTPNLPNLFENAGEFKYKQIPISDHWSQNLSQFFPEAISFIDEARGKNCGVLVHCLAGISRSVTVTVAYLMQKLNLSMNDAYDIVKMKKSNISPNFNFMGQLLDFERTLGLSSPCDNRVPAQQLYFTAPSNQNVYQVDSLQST
Chain of Glyceraldehyde-3-phosphate dehydrogenase (P04406 whole entry): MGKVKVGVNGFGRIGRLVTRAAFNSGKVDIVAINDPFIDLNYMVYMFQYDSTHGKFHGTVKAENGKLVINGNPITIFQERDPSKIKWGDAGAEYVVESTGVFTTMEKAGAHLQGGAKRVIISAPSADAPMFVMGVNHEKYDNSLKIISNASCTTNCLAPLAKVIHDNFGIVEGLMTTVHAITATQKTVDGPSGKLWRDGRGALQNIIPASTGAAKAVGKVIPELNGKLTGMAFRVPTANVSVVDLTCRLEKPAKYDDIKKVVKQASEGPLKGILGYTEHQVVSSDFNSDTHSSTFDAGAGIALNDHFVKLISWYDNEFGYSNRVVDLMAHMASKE
Chain of Paired box protein Pax-8 (Q06710 whole entry): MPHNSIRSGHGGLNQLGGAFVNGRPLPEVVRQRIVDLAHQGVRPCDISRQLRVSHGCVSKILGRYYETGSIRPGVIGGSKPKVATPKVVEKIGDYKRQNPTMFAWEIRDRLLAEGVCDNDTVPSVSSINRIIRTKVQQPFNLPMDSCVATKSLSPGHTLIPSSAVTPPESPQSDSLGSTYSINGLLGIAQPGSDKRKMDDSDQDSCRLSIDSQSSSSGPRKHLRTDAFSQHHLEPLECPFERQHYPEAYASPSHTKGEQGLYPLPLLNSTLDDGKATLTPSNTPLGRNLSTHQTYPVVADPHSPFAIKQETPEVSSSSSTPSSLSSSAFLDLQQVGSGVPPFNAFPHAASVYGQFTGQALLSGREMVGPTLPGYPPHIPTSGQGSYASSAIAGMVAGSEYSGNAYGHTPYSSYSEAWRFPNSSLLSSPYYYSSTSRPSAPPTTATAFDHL
Chain of Large T antigen (P03070 whole entry): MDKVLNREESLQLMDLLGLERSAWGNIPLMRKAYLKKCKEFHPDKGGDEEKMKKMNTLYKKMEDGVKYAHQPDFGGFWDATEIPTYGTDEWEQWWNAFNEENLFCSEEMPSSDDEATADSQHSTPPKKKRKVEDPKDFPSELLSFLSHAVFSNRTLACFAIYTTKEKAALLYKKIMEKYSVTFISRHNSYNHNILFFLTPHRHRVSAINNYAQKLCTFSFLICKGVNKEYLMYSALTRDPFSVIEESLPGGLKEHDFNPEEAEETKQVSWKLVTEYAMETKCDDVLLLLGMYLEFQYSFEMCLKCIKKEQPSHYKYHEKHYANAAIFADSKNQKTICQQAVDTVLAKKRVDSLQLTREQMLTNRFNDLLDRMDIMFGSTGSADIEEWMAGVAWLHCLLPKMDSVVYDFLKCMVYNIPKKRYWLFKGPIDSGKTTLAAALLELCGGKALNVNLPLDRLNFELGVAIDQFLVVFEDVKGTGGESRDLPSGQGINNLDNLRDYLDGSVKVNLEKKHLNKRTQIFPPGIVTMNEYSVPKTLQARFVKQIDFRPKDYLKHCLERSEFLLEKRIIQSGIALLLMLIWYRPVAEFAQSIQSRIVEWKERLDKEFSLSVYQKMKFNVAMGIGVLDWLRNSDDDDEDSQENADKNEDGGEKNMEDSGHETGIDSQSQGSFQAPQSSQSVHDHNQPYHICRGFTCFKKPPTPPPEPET
Chain of 5-hydroxytryptamine receptor 5A (P47898 whole entry): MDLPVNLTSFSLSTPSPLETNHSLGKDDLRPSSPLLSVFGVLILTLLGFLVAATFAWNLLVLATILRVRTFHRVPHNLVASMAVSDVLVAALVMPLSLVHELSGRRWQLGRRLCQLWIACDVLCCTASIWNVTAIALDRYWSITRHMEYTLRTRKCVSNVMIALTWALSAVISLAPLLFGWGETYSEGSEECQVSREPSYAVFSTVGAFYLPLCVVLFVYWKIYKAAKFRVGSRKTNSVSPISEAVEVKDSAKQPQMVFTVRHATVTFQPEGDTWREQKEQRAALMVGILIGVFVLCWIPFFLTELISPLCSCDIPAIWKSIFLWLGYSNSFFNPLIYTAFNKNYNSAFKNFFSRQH
Chain of FAD-linked sulfhydryl oxidase ALR (P55789 whole entry): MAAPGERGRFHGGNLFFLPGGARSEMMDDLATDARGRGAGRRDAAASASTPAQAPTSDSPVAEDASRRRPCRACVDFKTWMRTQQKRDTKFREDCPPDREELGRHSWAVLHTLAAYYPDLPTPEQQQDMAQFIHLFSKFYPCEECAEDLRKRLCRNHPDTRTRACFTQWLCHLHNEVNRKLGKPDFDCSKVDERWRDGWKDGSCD
Chain of Beta-adrenergic receptor kinase 1 (P25098 whole entry): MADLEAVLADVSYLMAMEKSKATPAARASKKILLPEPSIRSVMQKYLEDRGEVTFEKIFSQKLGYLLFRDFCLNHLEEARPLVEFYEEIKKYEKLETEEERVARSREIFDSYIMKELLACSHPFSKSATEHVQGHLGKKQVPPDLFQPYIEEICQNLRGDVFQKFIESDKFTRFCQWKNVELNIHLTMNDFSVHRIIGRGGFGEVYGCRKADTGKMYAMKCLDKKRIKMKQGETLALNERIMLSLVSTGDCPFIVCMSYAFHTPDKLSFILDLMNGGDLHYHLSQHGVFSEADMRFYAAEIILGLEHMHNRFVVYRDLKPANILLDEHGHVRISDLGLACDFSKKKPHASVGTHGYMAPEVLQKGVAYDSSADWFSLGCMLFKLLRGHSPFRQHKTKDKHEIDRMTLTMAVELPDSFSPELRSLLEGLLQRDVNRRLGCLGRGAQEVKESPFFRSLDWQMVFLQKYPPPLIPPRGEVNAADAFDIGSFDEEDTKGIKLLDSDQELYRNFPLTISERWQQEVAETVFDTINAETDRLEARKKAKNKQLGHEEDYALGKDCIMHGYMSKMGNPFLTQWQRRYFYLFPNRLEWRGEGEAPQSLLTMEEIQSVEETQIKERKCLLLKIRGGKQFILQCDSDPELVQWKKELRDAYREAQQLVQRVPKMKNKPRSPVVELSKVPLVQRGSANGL
Chain of Mu-type opioid receptor (P35372 whole entry): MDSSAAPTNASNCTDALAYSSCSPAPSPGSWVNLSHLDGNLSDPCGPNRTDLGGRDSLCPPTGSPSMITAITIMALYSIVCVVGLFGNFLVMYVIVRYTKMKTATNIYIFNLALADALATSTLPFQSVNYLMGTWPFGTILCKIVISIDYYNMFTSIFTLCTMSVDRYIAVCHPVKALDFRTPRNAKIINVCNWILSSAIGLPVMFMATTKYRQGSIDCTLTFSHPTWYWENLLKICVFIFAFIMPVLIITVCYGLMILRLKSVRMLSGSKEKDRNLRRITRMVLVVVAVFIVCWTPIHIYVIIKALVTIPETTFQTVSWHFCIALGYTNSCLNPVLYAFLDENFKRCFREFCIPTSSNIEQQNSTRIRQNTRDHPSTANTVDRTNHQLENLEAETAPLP
Chain of Delta-type opioid receptor (P41143 whole entry): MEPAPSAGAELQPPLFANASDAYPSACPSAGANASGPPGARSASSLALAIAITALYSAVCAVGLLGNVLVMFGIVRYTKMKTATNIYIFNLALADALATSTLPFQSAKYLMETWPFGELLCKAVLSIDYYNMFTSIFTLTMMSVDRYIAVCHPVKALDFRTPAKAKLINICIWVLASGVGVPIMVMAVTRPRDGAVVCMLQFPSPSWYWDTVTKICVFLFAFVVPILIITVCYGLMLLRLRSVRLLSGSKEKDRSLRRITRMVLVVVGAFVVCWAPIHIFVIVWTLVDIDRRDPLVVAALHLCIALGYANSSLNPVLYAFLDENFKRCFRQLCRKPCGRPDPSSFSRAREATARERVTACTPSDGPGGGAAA

With O=C1NC(=O)N(c2ccccc2)C(=O)/C1=C/C=C/c1ccco1 the AC50 (A-375 [1]) was > 35 µM (active), the AC50 [2] was 8.29 µM (active) and the AC50 [3] was 0.449 µM (active). For the same compound, the IC50 (Large T antigen) was 26.5 µM (active) and the AC50 (A-375 [4]) was > 35 µM (active).
In the case of CCc1ccccc1NC(=O)CCS(=O)(=O)c1ccc(Br)cc1, the EC50 [5] is reported as 3.48 µM (active).
With CC(C)[C@@H](C(N)=O)n1c(=O)[nH]c(=O)n(-c2ccc(Cl)cc2)c1=O the IC50 [6] was > 100 µM (not active), the IC50 [7] was > 100 µM (not active) and the IC50 [8] was > 100 µM (inactive). For the same compound, the IC50 [9] was > 100 µM (inactive).
In the case of CN(C)C(CN=C(S)Nc1cccc(Cl)c1)c1cccnc1 (stereo unspecified), the EC50 (Mu-type opioid receptor) is reported as 7.49 µM (active), the EC50 [10] is reported as 20.5 µM (inactive) and the EC50 [11] is reported as 0.0133 µM (active). The EC50 [12] was > 92.5 µM (inactive).
In the case of CC(N)C(=O)NC1C2C(=C(O)OC1(C)C(Cl)Cl)C(=O)CC(O)C2O (stereo unspecified), the AC50 [13] is reported as > 70 µM (inactive), the AC50 [14] is reported as 2.03 µM (active) and the AC50 [15] is reported as 1.85 µM (active). The AC50 (Escherichia coli [16]) was 113 µM (active), the AC50 (Paired box protein Pax-8) was 0.546 µM (active) and the IC50 (Vero [17]) was > 25 µM (active). The AC50 (Escherichia coli [18]) was 20.8 µM (active) and the CC50 (Vero [19]) was 3.08 µM (active).
In the case of Cc1ccccc1N1C(=O)c2ccccc2C1Nc1ccc(Br)cc1 (stereo unspecified), the IC50 (Hexokinase HKDC1 [20]) is reported as > 80 µM (inactive) and the IC50 (Hexokinase-1 [21]) is reported as > 80 µM (inactive).
For N#Cc1ccc(CSc2nnc(NC(=O)c3ccc4ccccc4n3)s2)cc1, the IC50 (Hexokinase-1 [22]) was > 80 µM (inactive) and the IC50 (Hexokinase HKDC1 [23]) was > 80 µM (inactive).
